These results are taken from ChEMBL document CHEMBL5030542, “Pillar[5]arene-Based Polycationic Glyco[2]rotaxanes Designed as Pseudomonas aeruginosa Antibiofilm Agents” (J Med Chem, 2021).

Calls of active or inactive are those of the source. The calls are words filed in the database; no cut-off is given here.

In assay [1] the test system is Pseudomonas aeruginosa. Put plainly: Antibacterial activity against Pseudomonas aeruginosa PAO1 assessed as inhibition of bacterial growth for complete inhibition of bacterial growth incubated for 24 hrs. It is filed as functional.
In assay [2] the test system is Pseudomonas aeruginosa. Put plainly: Binding affinity to recombinant Pseudomonas aeruginosa LecA expressed in Escherichia coli assessed as change in enthalpy by isothermal titration calorimetry.
In assay [3] the target is Fucose-binding lectin PA-IIL (Pseudomonas aeruginosa (strain ATCC 15692 / DSM 22644 / CIP 104116 / JCM14847 / LMG 12228 / 1C / PRS 101 / PAO1), UniProt Q9HYN5). Put plainly: Binding affinity to recombinant Pseudomonas aeruginosa lecB expressed in Escherichia coli assessed as dissociation constant by isothermal titration calorimetry.
Fucose-binding lectin PA-IIL, sequence (Q9HYN5 whole entry): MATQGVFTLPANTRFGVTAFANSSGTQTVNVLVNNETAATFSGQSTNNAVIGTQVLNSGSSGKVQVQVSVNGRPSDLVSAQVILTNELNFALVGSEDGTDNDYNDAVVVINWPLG
In assay [4] the target is Fucose-binding lectin PA-IIL (Pseudomonas aeruginosa (strain ATCC 15692 / DSM 22644 / CIP 104116 / JCM14847 / LMG 12228 / 1C / PRS 101 / PAO1)) (UniProt Q9HYN5). Put plainly: Binding affinity to recombinant Pseudomonas aeruginosa LecB expressed in Escherichia coli assessed as change in enthalpy by isothermal titration calorimetry.
Fucose-binding lectin PA-IIL (Pseudomonas aeruginosa (strain ATCC 15692 / DSM 22644 / CIP 104116 / JCM14847 / LMG 12228 / 1C / PRS 101 / PAO1)), sequence (Q9HYN5 as listed by the source): as the sequence (Q9HYN5 whole entry) above
For assay [5], the system named is Pseudomonas aeruginosa. Put plainly: Binding affinity to recombinant Pseudomonas aeruginosa LecA expressed in Escherichia coli assessed as gibbs free energy change by isothermal titration calorimetry.
The test system of assay [6] is Pseudomonas aeruginosa. Put plainly: Anti-bioflim activity against Pseudomonas aeruginosa PAO1 assessed as inhibition of bioflim formation measured at MBIC50 concentration incubated for 24 hrs by crystal violet staining based assay. It is filed as functional.
Assay [7] addresses Fucose-binding lectin PA-IIL (Pseudomonas aeruginosa (strain ATCC 15692 / DSM 22644 / CIP 104116 / JCM14847 / LMG 12228 / 1C / PRS 101 / PAO1)) (UniProt Q9HYN5). Put plainly: Binding affinity to recombinant Pseudomonas aeruginosa LecB expressed in Escherichia coli assessed as gibbs free energy change by isothermal titration calorimetry.
Assay [8] concerns Pseudomonas aeruginosa. Put plainly: Anti-bioflim activity against Pseudomonas aeruginosa PAO1 assessed as inhibition of bioflim formation incubated for 24 hrs by crystal violet staining based assay. It is filed as functional.
Assay [9] in a line: Binding affinity to recombinant Pseudomonas aeruginosa LecA expressed in Escherichia coli assessed as dissociation constant by isothermal titration calorimetry.
The target of assay [10] is Fucose-binding lectin PA-IIL (Pseudomonas aeruginosa (strain ATCC 15692 / DSM 22644 / CIP 104116 / JCM14847 / LMG 12228 / 1C / PRS 101 / PAO1)) (UniProt Q9HYN5). Put plainly: Binding affinity to recombinant Pseudomonas aeruginosa LecB expressed in Escherichia coli assessed as change in entropy by isothermal titration calorimetry.
Assay [11] deals with Pseudomonas aeruginosa. Put plainly: Binding affinity to recombinant Pseudomonas aeruginosa LecA expressed in Escherichia coli assessed as change in entropy by isothermal titration calorimetry.

`C[C@@H]1O[C@@H](OCCOCCn2cc(COCC(COCc3cn(CCOCCO[C@@H]4O[C@@H](C)[C@@H](O)[C@@H](O)[C@@H]4O)nn3)N=[N+]=[N-])nn2)[C@@H](O)[C@H](O)[C@@H]1O.OC[C@H]1O[C@@H](OCc2cn(CCCOc3cc4c(OCCn5cc(CO[C@@H]6O[C@H](CO)[C@H](O)[C@H](O)[C@H]6O)nn5)cc3Cc3cc(OCCn5cc(CO[C@@H]6O[C@H](CO)[C@H](O)[C@H](O)[C@H]6O)nn5)c(cc3OCCn3cc(CO[C@@H]5O[C@H](CO)[C@H](O)[C@H](O)[C@H]5O)nn3)Cc3cc(OCCn5cc(CO[C@@H]6O[C@H](CO)[C@H](O)[C@H](O)[C@H]6O)nn5)c(cc3OCCn3cc(CO[C@@H]5O[C@H](CO)[C@H](O)[C@H](O)[C@H]5O)nn3)Cc3cc(OCCn5cc(CO[C@@H]6O[C@H](CO)[C@H](O)[C@H](O)[C@H]6O)nn5)c(cc3OCCn3cc(CO[C@@H]5O[C@H](CO)[C@H](O)[C@H](O)[C@H]5O)nn3)Cc3cc(OCCCn5cc(CO[C@@H]6O[C@H](CO)[C@H](O)[C@H](O)[C@H]6O)nn5)c(cc3OCCn3cc(CO[C@@H]5O[C@H](CO)[C@H](O)[C@H](O)[C@H]5O)nn3)C4)nn2)[C@H](O)[C@@H](O)[C@H]1O`: the minimal inhibitory concentration (MIC) with Pseudomonas aeruginosa [1] was more than 150 µM. Further, the figures for the deltaH (with Pseudomonas aeruginosa [2]; in assay [4]) were -25.1 kcal/mol and -14.7 kcal/mol, respectively. In addition, the Kd in [3] is 474 nM; in [9], 646 nM. Also, the deltaG in the assay with Pseudomonas aeruginosa [5] was -8.46 kcal/mol; in assay [7], -8.63 kcal/mol. Further, the MBIC50 entry in the assay on Pseudomonas aeruginosa [6] is “inactive”. Also, the MBIC50 with Pseudomonas aeruginosa [8] is more than 150 µM. For the same compound, in [10], the deltaS was found to be 6.07 kcal/mol. Further, the -TΔS in the assay on Pseudomonas aeruginosa [11] was determined as 16.6 kcal/mol.

For the compound `NC[C@H]1O[C@H](O[C@H]2[C@H](O)[C@@H](O[C@H]3O[C@H](CO)[C@@H](O)[C@H](N)[C@H]3O)[C@H](N)C[C@@H]2N)[C@H](N)C[C@@H]1O` [TOBRAMYCIN], the “inhibition (INH)” value in the assay with Pseudomonas aeruginosa [6] stood at 92%. For the same compound, the MBIC50 in the assay on Pseudomonas aeruginosa [8] came to 2 µM.

For `OC[C@H]1O[C@@H](OCc2cn(CCOc3cc4c(OCCn5cc(CO[C@@H]6O[C@H](CO)[C@H](O)[C@H](O)[C@H]6O)nn5)cc3Cc3cc(OCCn5cc(CO[C@@H]6O[C@H](CO)[C@H](O)[C@H](O)[C@H]6O)nn5)c(cc3OCCn3cc(CO[C@@H]5O[C@H](CO)[C@H](O)[C@H](O)[C@H]5O)nn3)Cc3cc(OCCn5cc(CO[C@@H]6O[C@H](CO)[C@H](O)[C@H](O)[C@H]6O)nn5)c(cc3OCCn3cc(CO[C@@H]5O[C@H](CO)[C@H](O)[C@H](O)[C@H]5O)nn3)Cc3cc(OCCn5cc(CO[C@@H]6O[C@H](CO)[C@H](O)[C@H](O)[C@H]6O)nn5)c(cc3OCCn3cc(CO[C@@H]5O[C@H](CO)[C@H](O)[C@H](O)[C@H]5O)nn3)Cc3cc(OCCn5cc(CO[C@@H]6O[C@H](CO)[C@H](O)[C@H](O)[C@H]6O)nn5)c(cc3OCCn3cc(CO[C@@H]5O[C@H](CO)[C@H](O)[C@H](O)[C@H]5O)nn3)C4)nn2)[C@H](O)[C@@H](O)[C@H]1O`, the deltaH with Pseudomonas aeruginosa [2] is -37.5 kcal/mol. Further, the deltaG in the assay on Pseudomonas aeruginosa [5] is -9.35 kcal/mol. The Kd in assay [9] was found to be 145 nM. In addition, the deltaS in the assay on Pseudomonas aeruginosa [11] came out at 28.2 kcal/mol.

Take `CO[C@@H]1O[C@H](CO)[C@H](O)[C@H](O)[C@H]1O`: the deltaH in the assay with Pseudomonas aeruginosa [2] is -4.54 kcal/mol. For the same compound, the deltaG in the assay on Pseudomonas aeruginosa [5] was -5.81 kcal/mol. Also, the Kd in [9] was 55700 nM.
